Tests used:
[1] = molecular target: T1, Bifunctional epoxide hydrolase 2 (Homo sapiens, UniProt P34913)
T1 sequence (P34913 whole entry): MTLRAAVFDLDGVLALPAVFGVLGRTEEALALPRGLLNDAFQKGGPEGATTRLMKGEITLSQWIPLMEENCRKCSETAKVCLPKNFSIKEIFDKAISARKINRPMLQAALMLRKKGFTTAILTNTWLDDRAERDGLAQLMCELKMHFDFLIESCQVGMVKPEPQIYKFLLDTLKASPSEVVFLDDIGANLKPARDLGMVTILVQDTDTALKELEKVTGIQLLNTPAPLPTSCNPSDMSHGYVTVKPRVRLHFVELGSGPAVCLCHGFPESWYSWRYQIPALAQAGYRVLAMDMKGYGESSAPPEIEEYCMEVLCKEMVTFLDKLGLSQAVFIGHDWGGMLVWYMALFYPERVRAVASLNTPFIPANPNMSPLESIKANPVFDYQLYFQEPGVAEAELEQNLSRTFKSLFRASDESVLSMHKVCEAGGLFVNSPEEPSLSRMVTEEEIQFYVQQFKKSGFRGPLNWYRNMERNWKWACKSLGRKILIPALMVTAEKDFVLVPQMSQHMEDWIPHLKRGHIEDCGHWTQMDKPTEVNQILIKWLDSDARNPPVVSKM
Description: Inhibition of human recombinant sEH using PHOME as substrate measured after 10 mins by fluorescent based assay

[2] = molecular target: T2, Bifunctional epoxide hydrolase 2 (Mus musculus, UniProt P34914)
T2 sequence (P34914 whole entry): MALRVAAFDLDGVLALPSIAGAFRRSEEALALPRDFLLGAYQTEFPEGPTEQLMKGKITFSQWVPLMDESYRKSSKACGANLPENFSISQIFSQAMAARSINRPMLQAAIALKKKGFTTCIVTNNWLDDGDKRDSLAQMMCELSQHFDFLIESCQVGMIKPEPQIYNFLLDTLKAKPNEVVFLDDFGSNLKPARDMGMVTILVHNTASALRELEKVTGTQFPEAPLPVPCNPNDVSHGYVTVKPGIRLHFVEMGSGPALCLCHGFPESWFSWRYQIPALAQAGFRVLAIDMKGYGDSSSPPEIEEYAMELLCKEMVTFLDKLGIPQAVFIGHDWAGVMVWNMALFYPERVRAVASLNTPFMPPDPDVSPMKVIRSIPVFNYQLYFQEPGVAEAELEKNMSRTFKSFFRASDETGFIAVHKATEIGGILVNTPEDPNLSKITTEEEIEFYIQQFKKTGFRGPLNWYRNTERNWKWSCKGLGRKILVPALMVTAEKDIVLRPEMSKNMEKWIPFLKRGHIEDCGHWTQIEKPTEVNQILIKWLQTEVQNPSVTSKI
Description: Inhibition of mouse recombinant sEH using PHOME as substrate measured after 10 mins by fluorescent based assay

[3] = Acute toxicity in ICR mouse assessed as body weight at 100 mg/kg, ip administered as single dose observed for 14 days; type: organism-based; details: in vivo, 336 h, time 14 day
[4] = Reversible toxicity in ICR mouse assessed as eye secretion at 100 mg/kg, ip administered as single dose observed for 14 days; type: organism-based; details: in vivo, 336 h, time 14 day
[5] = Cmax in Sprague-Dawley rat at 3 mg/kg, iv administered as single dose upto 24 hrs by LC-MS analysis; type: ADME, organism-based; set-up: route intravenous, dose 3 mg/kg, time <=24; details: in vivo
[6] = Cmax in Sprague-Dawley rat at 30 mg/kg, po administered as single dose upto 24 hrs by LC-MS analysis; type: ADME, organism-based; set-up: route oral, dose 30 mg/kg, time <=24; details: in vivo
[7] = Clearance in Sprague-Dawley rat at 3 mg/kg, iv administered as single dose upto 24 hrs by LC-MS analysis; type: ADME, organism-based; details: in vivo
[8] = Clearance in Sprague-Dawley rat at 30 mg/kg, po administered as single dose upto 24 hrs by LC-MS analysis; type: ADME, organism-based; details: in vivo
[9] = Volume of distribution in Sprague-Dawley rat at 3 mg/kg, iv administered as single dose upto 24 hrs by LC-MS analysis; type: ADME, organism-based; details: in vivo
[10] = Volume of distribution in Sprague-Dawley rat at 30 mg/kg, po administered as single dose upto 24 hrs by LC-MS analysis; type: ADME, organism-based; details: in vivo
[11] = AUC (0 to 24 hrs) in Sprague-Dawley rat at 3 mg/kg, iv administered as single dose upto 24 hrs by LC-MS analysis; type: ADME, organism-based; set-up: route intravenous, dose 3 mg/kg, time <=24; details: in vivo
[12] = AUC (0 to 24 hrs) in Sprague-Dawley rat at 30 mg/kg, po administered as single dose upto 24 hrs by LC-MS analysis; type: ADME, organism-based; set-up: route oral, dose 30 mg/kg, time <=24; details: in vivo
[13] = AUC (0 to infinity) in Sprague-Dawley rat at 30 mg/kg, po administered as single dose upto 24 hrs by LC-MS analysis; type: ADME, organism-based; set-up: route oral, dose 30 mg/kg, time <=24; details: in vivo
[14] = Microsomal stability in human liver microsomes assessed as substrate remaining in presence of NADPH measured after 5 mins by LC-MS/MS analysis
[15] = Microsomal stability in human liver microsomes assessed as substrate remaining in presence of NADPH measured after 10 mins by LC-MS/MS analysis
[16] = Microsomal stability in human liver microsomes assessed as substrate remaining in presence of NADPH measured after 20 mins by LC-MS/MS analysis
[17] = Microsomal stability in human liver microsomes assessed as substrate remaining in presence of NADPH measured after 30 mins by LC-MS/MS analysis; details: 0.5 h
[18] = Microsomal stability in human liver microsomes assessed as substrate remaining in presence of NADPH measured after 60 mins by LC-MS/MS analysis; details: 1 h
[19] = tested on: Mus musculus; test: Effect on C57BL/6 mouse model of LPS induced sepsis assessed as survival rate in 24 hrs at 5 mg/kg, ip (reference value: 71.4%); type: functional; details: C57BL/6, ip
[20] = tested on: Mus musculus; test: Effect on C57BL/6 mouse model of LPS induced sepsis assessed as survival rate in 72 hrs at 5 mg/kg, ip (reference value: 28.6%); type: functional; details: C57BL/6, ip

Compound | IC50 [1] [nM] | IC50 [2] [nM] | further results
O=C(Nc1ccc(C(=O)NC2CCCCC2)cc1)NC12CC3CC(CC(O)(C3)C1)C2 | 796 | 94.2 | 
CC12CC3CC(C)(C1)CC(NC(=O)CCC(=O)N1CCCCC1)(C3)C2 | 2470 | 21700 | 
CC12CC3CC(C)(C1)CC(NC(=O)CCCC(=O)N1CCCCC1)(C3)C2 | 5930 | 5840 | 
O=C(Nc1ccc(C(=O)NC2CCCCC2)cc1)NC1C2CC3CC1CC(O)(C3)C2 (centres undefined) | 493 | 463 | 
CC12CC3CC(C)(C1)CC(NC(=O)Nc1ccc(C(=O)NC4CCCCC4)cc1)(C3)C2 | 2.3 | 0.4 | Activity [3]: Non-Toxic
CC(C)CNC(=O)c1ccc(NC(=O)NC23CC4CC(C)(CC(C)(C4)C2)C3)cc1 | 0.7 | 0.4 | Activity [3]: Non-Toxic
CC12CC3CC(C)(C1)CC(NC(=O)CCC(=O)NC1CCCCC1)(C3)C2 | 7890 | 180 | 
CC(C)CNC(=O)c1ccc(NC(=O)NC2C3CC4CC(C3)CC2C4)cc1 (centres undefined) | 0.9 | 0.4 | Activity [3]: Non-Toxic; Activity [4]: Toxic
CC(C)CNC(=O)/C=C/C(=O)NC12CC3CC(C)(CC(C)(C3)C1)C2 | 9620 | 21100 | 
CC12CC3CC(C)(C1)CC(NC(=O)/C=C/C(=O)NC1CCCCC1)(C3)C2 | 24400 | 5520 | 
CC(C)CNC(=O)CCC(=O)NC(C)C12CC3CC(CC(C3)C1)C2 (centres undefined) | 50.8 | 43.5 | 
CC(C)CNC(=O)CCCC(=O)NC1C2CC3CC1CC(O)(C3)C2 (centres undefined) | 41.6 | 106 | 
CC12CC3CC(C)(C1)CC(NC(=O)CCCC(=O)NC1CCCCC1)(C3)C2 | 1590 | 8.3 | 
CC(C)CNC(=O)c1ccc(NC(=O)NC(C)C23CC4CC(CC(C4)C2)C3)cc1 (centres undefined) | 59.8 | 28.8 | 
CC(NC(=O)Nc1ccc(C(=O)N2CCCCC2)cc1)C12CC3CC(CC(C3)C1)C2 (centres undefined) | 3.9 | 2.4 | 
O=C(Nc1ccc(C(=O)N2CCCCC2)cc1)NC12CC3CC(CC(O)(C3)C1)C2 | 120 | 88.8 | 
O=C(Nc1ccc(C(=O)N2CCCCC2)cc1)NC1C2CC3CC1CC(O)(C3)C2 (centres undefined) | 217 | 497 | 

Compound | IC50 [1] [nM] | IC50 [2] [nM] | further results
CC(NC(=O)Nc1ccc(C(=O)NC2CCCCC2)cc1)C12CC3CC(CC(C3)C1)C2 (centres undefined) | 217 | 13.7 | 
CC(C)CNC(=O)CCCC(=O)NC1C2CC3CC(C2)CC1C3 (centres undefined) | 3580 | 2270 | 
CC12CC3CC(C)(C1)CC(NC(=O)c1ccc(C(=O)NC4CCCCC4)cc1)(C3)C2 | 6290 | 1020 | 
CC(C)CNC(=O)CCCC(=O)NC12CC3CC(C)(CC(C)(C3)C1)C2 | 6230 | 225 | 
CC12CC3CC(C)(C1)CC(NC(=O)Nc1ccc(C(=O)N4CCCCC4)cc1)(C3)C2 |  |  | Cmax [5]: 3.64 µM; Cmax [6]: 330 nM; CLH [7]: 4.3 L/kg/h; CLH [8]: 269.79 L/kg/h; Vd [9]: 7.83 L/kg; Vd [10]: 1097.8 L/kg; AUC(0-t) [11]: 1.83 µM·h; AUC(0-t) [12]: 1.3 µM·h; AUC [13]: 1.305 µM·h; Activity [4]: Toxic; residual activity [14]: 58.9%; residual activity [15]: 43%; residual activity [16]: 26.4%; residual activity [17]: 17.1%; residual activity [18]: 12.4%
CC12CC3CC(C)(C1)CC(NC(=O)/C=C\C(=O)N1CCCCC1)(C3)C2 | 21500 | 81200 | 
O=C(Nc1ccc(C(=O)NC2CCCCC2)cc1)NC1C2CC3CC(C2)CC1C3 (centres undefined) | 1.4 | 0.4 | Activity [4]: Toxic
O=C(Nc1ccc(C(=O)N2CCCCC2)cc1)NC1C2CC3CC(C2)CC1C3 (centres undefined) | 0.4 | 0.4 | Activity [3]: Non-Toxic
CC(C)CNC(=O)c1ccc(NC(=O)NC23CC4CC(CC(O)(C4)C2)C3)cc1 | 949 | 291 | 
CC(C)CNC(=O)CCCC(=O)NC(C)C12CC3CC(CC(C3)C1)C2 (centres undefined) | 7320 | 694 | 
CC(C)CNC(=O)CCC(=O)NC12CC3CC(C)(CC(C)(C3)C1)C2 | 18900 | 4130 | 
CC(C)CNC(=O)c1ccc(NC(=O)NC2C3CC4CC2CC(O)(C4)C3)cc1 (centres undefined) | 249 | 2350 | 
CC12CC3CC(C)(C1)CC(NC(=O)c1ccc(C(=O)N4CCCCC4)cc1)(C3)C2 | 26400 | 60700 | 
CC(C)CNC(=O)c1ccc(C(=O)NC23CC4CC(C)(CC(C)(C4)C2)C3)cc1 | > 100000 | 6540 | 
CC(=O)N1CCC(NC(=O)NC23CC4CC(CC(C4)C2)C3)CC1 [AR9281] |  |  | Activity [4]: Toxic
C[C@@H]1C[C@H]2[C@@H]3CCC4=CC(=O)C=C[C@]4(C)[C@@]3(F)[C@@H](O)C[C@]2(C)[C@@]1(O)C(=O)CO [DEXAMETHASONE] |  |  | survival at 5 mg/kg [19]: 100%; survival at 5 mg/kg [20]: 100%

— ChEMBL document CHEMBL4840312, “Discovery of memantyl urea derivatives as potent soluble epoxide hydrolase inhibitors against lipopolysaccharide-induced sepsis” (Eur J Med Chem, 2021)
